The values that follow are results of earlier work, collected in paper PMC6458983 (Cancer Chemotherapy and Pharmacology, 2019).

Each structure is given as a SMILES string.

The conditions of this data set: cited from earlier work.

`C#Cc1cccc(Nc2ncnc3cc(OCCOC)c(OCCOC)cc23)c1` [erlotinib]: for the setting “patient case study, at the time of ILD diagnosis”, the trough plasma concentration entry is “elevated”. Further, the “median trough concentrations versus patients without ILD” value (three patients at the time of suspected ILD) is reported as “approximately three times higher”.
